Experimental data: US6750008B1, “Methods and compositions for inhibition of membrane fusion-associated events, including HIV transmission” (priority 1999, dated 2004)

Columns and labels:
Fab-d = test: ELISA analysis of DP178 binding to the leucine zipper motif of gp41 (Fab-d ELISA); set-up: species or system human; details: reagent alone
Procedure: The amino acid sequence of DP178 used is: […]. […] Each well was washed three times with distilled water then blocked with 3% bovine serum albumin (BSA) for 2 hours. After blocking, peptides with 0.5% BSA in TBST (40 mM Tris-HCl pH7.5, 150 mM NaCl, 0.05% Tween 20) were added to the ELISA plates and incubated at room temperature for 1 hour. After washing three times with TBST, Fab-d was added at a concentration of 10 ng/ml with 0.5% BSA in TBST. The plates were washed three times with TBST after incubation at room temperature for 1 hour. Horse radish peroxidase (HRP) conjugated goat antihuman Fab antiserum at a 2000 fold dilution in TBST with 0.5% BSA was added to each well and incubated at room temperature for 45 minutes. The plates were then washed four times with TBST. The peroxidase substrate o-phenylene diamine (2.5 mg/ml) and 0.15% H2O2 were added to develop the color. The reaction was stopped with an equal volume of 4.5 N H2SO4 after incubation at room temperature for 10 minutes. The optical density of the stopped reaction mixture was measured with a micro plate reader (Molecular Design) at 490 nm.

HIV-1/IIIb = test: Anti-HIV assays of DP107/DP178 truncations and mutations; type: cell-based; details: worded 'results shown are for 4 ng/ml'
Description: Anti-HIV assays: The antiviral assays performed were as those described, above, in Section 6.1. Assays utilized HIV-1/IIIb and/or HIV-2 NIHZ isolates. Purified peptides were used, unless otherwise noted in FIGS. 49A-C.

HIV-1IIIB = type: cell-based
HIV-1LAI virus [1] = test: Cell fusion assay (HIV-1 induced syncytia formation); type: cell-based
Description: The results of several such experiments are presented herein.

HIV-2 = test: Fusion inhibition assay, HIV-2 mediated syncytia formation; type: cell-based; details: FIG. 5
Procedure: Approximately 7×10^4 Molt cells were incubated with 1×10^4 CEM cells chronically infected with the HIV-1LAI virus in 96-well plates (one-half area cluster plates; Costar, Cambridge, Mass.) in a final volume of 100 μl culture medium as previously described (Matthews, T. J. et al., 1987, Proc. Natl. Acad. Sci. USA 84: 5424-5428). Peptide inhibitors were added in a volume of 10 μl and the cell mixtures were incubated for 24 hr. at 37° C. At that time, multinucleated giant cells were estimated by microscopic examination at a 40× magnification which allowed visualization of the entire well in a single field.

[2] = test system: HIV-1IIIB chronically infected CEM cells; type: cell-based; details: 10 nM
Procedure: Cell fusion assays were performed as previously described (Matthews et al., 1987, Proc. Natl. Acad. Sci. USA 84: […]). CEM cells (7×10^4) were incubated with HIV-1IIIB chronically infected CEM cells (10^4) in 96-well flat-bottomed half-area plates (Costar) in 100 μl culture medium. Peptide and fusion proteins at various concentrations in 10 μl culture medium were incubated with the cell mixtures at 37° C. for 24 hours. Multinucleated syncytia were estimated with microscopic examination.
No peptide or fusion protein was added in the control samples.

HIV-2NIHZ = test: Cell free virus infection assay (RT production); type: cell-based; details: 25 TCID50 HIV-2NIHZ, CEM cells, 7 days
Procedure: (§1) Synthetic peptides were incubated at 37° C. with either 247 TCID50 (for experiment depicted in FIG. 2), or 62 TCID50 (for experiment depicted in FIG. 3) units of HIV-1LAI virus or 25 TCID50 units of HIV-2NIHZ and CEM CD4^+ cells at peptide concentrations of 0, 0.04, 0.4, 4.0, and 40 μg/ml for 7 days. The resulting reverse transcriptase (RT) activity in counts per minute was determined using the assay described, below, in Section 6.1.5. See Reed, L. J. et al., 1938, Am. J. Hyg. 27: 493-497 for an explanation of TCID50 calculations.
The micro-reverse transcriptase (RT) assay was adapted from Goff et al. (Goff, S. et al., 1981, J. Virol. 38:239-248) and Willey et al. (Willey, R. et al., 1988, J. Virol. 62:139-147). Supernatants from virus/cell cultures are adjusted to 1% Triton-X100. A 10 μl sample of supernatant was added to 50 μl of RT cocktail in a 96-well U-bottom microtitre plate and the samples incubated at 37° C. for 90 min. The RT cocktail contained 75 mM KCl, 2 mM dithiothreitol, 5 mM MgCl2, 5 μg/ml poly A (Pharmacia, cat. No. 27-4110-01), 0.25 units/ml oligo dT (Pharmacia, cat. No. 27-7858-01), 0.05% NP40, 50 mM Tris-HCl, pH 7.8, 0.5 μM non-radioactive dTTP, and 10 μCi/ml ^32P-dTTP (Amersham, cat. No. PB.10167). […]

HIV-1LAI virus [3] = test system: HIV-1LAI virus
Procedure: as §1
The micro-reverse transcriptase (RT) assay was adapted from Goff et al. (Goff, S. et al., 1981, J. Virol. 38:239-248) and Willey et al. (Willey, R. et al., 1988, J. Virol. 62:139-147). Supernatants from virus/cell cultures are adjusted to 1% Triton-X100. A 10 μl sample of supernatant was added to 50 μl of RT cocktail in a 96-well U-bottom microtitre plate and the samples incubated at 37° C. for 90 min. The RT cocktail contained 75 mM KCl, 2 mM dithiothreitol, 5 mM MgCl2, 5 μg/ml poly A (Pharmacia, cat. No. 27-4110-01), 0.25 units/ml oligo dT (Pharmacia, cat. No. 27-7858-01), 0.05% NP40, 50 mM Tris-HCl, pH 7.8, 0.5 μM non-radioactive dTTP, and 10 μCi/ml ^32P-dTTP (Amersham, cat. No. PB.10167).
After the incubation period, 40 μl of reaction mixture was applied to a Schleicher and Schuell (S+S) NA45 membrane (or DE81 paper) saturated in 2×SSC buffer (0.3M NaCl and 0.003M sodium citrate) held in a S+S Minifold over one sheet of GB003 (S+S) filter paper, with partial vacuum applied. Each well of the minifold was washed four times with 200 μl 2×SSC, under full vacuum. The membrane was removed from the minifold and washed 2 more times in a pyrex dish with an excess of 2×SSC. Finally, the membrane was drained on absorbent paper, placed on Whatman #3 paper, covered with Saran wrap, and exposed to film overnight at −70° C.
DP178 (SEQ ID:1) was next tested for its ability to block CD-4^+ CEM cell infection by cell free HIV-1 virus. […]

Enfuvirtide
binding of Fab-d (Fab-d): failed to bind | anti-HIV antiviral data, results shown (FIGS. 49A-C) (HIV-1/IIIb): 4 ng/mL | IC90 (HIV-1IIIB): 80 nM | selectivity as inhibitor of HIV-1-mediated over HIV-2 mediated cell fusion (HIV-1LAI virus [1]): 4 log | peptide concentration blocking HIV-1-mediated syncytia formation (HIV-1LAI virus [1]; FIG. 5, HIV-1 vs HIV-2): below 1 ng/ml | complete protection against syncytium formation down to lowest concentration tested (HIV-1LAI virus [1]; HIV-1LAI): ≤ 12.5 ng/mL | lowest effective inhibitory concentration, complete block of virus induced syncytia formation (HIV-1LAI virus [1]; Molt cells + chronically HIV-1 infected CEM cells, 24 hr): 1 to 10 ng/mL | complete protection against syncytium formation down to lowest concentration used (HIV-1LAI virus [1]; all other HIV-1 viruses (HIV-1MN, HIV-1RF, HIV-1SF2)): ≤ 100 ng/mL | concentration failing to block HIV-2 mediated syncytia formation (HIV-2): > 10 µg/mL | syncytia in HIV-1 induced cell-cell fusion [2]: not observable syncytia | IC50 for HIV-2NIHZ (HIV-2NIHZ): much higher | IC50, inhibition of RT production (HIV-1LAI virus [3]; 62 TCID50 HIV-1LAI, CEM cells, 7 days): about 31 ng/ml | potency as HIV-1 inhibitor relative to HIV-2 inhibitor (HIV-1LAI virus [3]; cell free virus infection): two logs more potent
